Reference: ChEMBL document CHEMBL3046832, “Synthesis of some sulfonamides, disubstituted sulfonylureas or thioureas and some structurally related variants. A class of promising antitumor agents” (2007)

How the values were obtained:
Format in all cases: functional
M14 = assay: Cytotoxicity against Homo sapiens (human) M14 cells after 48 hr by SRB assay; conditions: M14, 48 h
LOX IMVI = assay: Cytotoxicity against Homo sapiens (human) LOXIMVI cells after 48 hr by SRB assay
U-251 = assay: Cytotoxicity against Homo sapiens (human) U251 cells after 48 hr by SRB assay; conditions: U-251, 48 h
Hs-578T = assay: Cytotoxicity against Homo sapiens (human) Hs578T cells after 48 hr by SRB assay
MCF7 [1] = assay: Cytotoxicity against Homo sapiens (human) MCF7 cells after 48 hr by SRB assay; conditions: MCF7, 48 h
MDA-MB-231 = assay: Cytotoxicity against Homo sapiens (human) MDA-MB-231 cells after 48 hr by SRB assay; conditions: MDA-MB-231, 48 h
DU-145 = assay: Cytotoxicity against Homo sapiens (human) DU145 cells after 48 hr by SRB assay; conditions: DU-145, 48 h
UO-31 = assay: Cytotoxicity against Homo sapiens (human) UO31 cells after 48 hr by SRB assay; conditions: UO-31, 48 h
RXF 393 = assay: Cytotoxicity against Homo sapiens (human) RXF393 cells after 48 hr by SRB assay; conditions: RXF 393, 48 h
CAKI-1 = assay: Cytotoxicity against Homo sapiens (human) Caki1 cells after 48 hr by SRB assay; conditions: CAKI-1, 48 h
ACHN = assay: Cytotoxicity against Homo sapiens (human) ACHN cells after 48 hr by SRB assay
786-0 = assay: Cytotoxicity against Homo sapiens (human) 786-0 cells after 48 hr by SRB assay; conditions: 786-0, 48 h
[2] = Cytotoxicity against Homo sapiens (human) NCI-ADR-RES cells after 48 hr by SRB assay
SK-OV-3 = assay: Cytotoxicity against Homo sapiens (human) SKOV3 cells after 48 hr by SRB assay; conditions: SK-OV-3, 48 h
OVCAR-8 = assay: Cytotoxicity against Homo sapiens (human) OVCAR8 cells after 48 hr by SRB assay; conditions: OVCAR-8, 48 h
OVCAR-5 = assay: Cytotoxicity against Homo sapiens (human) OVCAR5 cells after 48 hr by SRB assay; conditions: OVCAR-5, 48 h
OVCAR-3 = assay: Cytotoxicity against Homo sapiens (human) OVCAR3 cells after 48 hr by SRB assay; conditions: OVCAR-3, 48 h
UACC-62 = assay: Cytotoxicity against Homo sapiens (human) UACC62 cells after 48 hr by SRB assay; conditions: UACC-62, 48 h
UACC-257 = assay: Cytotoxicity against Homo sapiens (human) UACC257 cells after 48 hr by SRB assay; conditions: UACC-257, 48 h
SK-MEL-5 = assay: Cytotoxicity against Homo sapiens (human) SK-MEL-5 cells after 48 hr by SRB assay; conditions: SK-MEL-5, 48 h
SK-MEL-28 = assay: Cytotoxicity against Homo sapiens (human) SK-MEL-28 cells after 48 hr by SRB assay; conditions: SK-MEL-28, 48 h
[3] = Cytotoxicity against Homo sapiens (human) breast cancer cells after 48 hr by SRB assay; conditions: Cancer cell lines
[4] = Cytotoxicity against Homo sapiens (human) renal cancer cells after 48 hr by SRB assay; conditions: Cancer cell lines
[5] = Cytotoxicity against Homo sapiens (human) ovarian cancer cells after 48 hr by SRB assay; conditions: Cancer cell lines
[6] = Cytotoxicity against Homo sapiens (human) melanoma cells after 48 hr by SRB assay; conditions: Melanoma cell
[7] = Cytotoxicity against Homo sapiens (human) CNS cancer cells after 48 hr by SRB assay; conditions: Cancer cell lines
[8] = Cytotoxicity against Homo sapiens (human) non-small cell lung cancer cells after 48 hr by SRB assay; conditions: Cancer cell lines
NCI-H460 = assay: Cytotoxicity against Homo sapiens (human) NCI-H460 cells assessed as cellular growth after 48 hr by Alamar blue assay; set-up: concentration or dose not given beside the values
SF-268 [9] = assay: Cytotoxicity against Homo sapiens (human) SF268 cells assessed as cellular growth after 48 hr by Alamar blue assay; set-up: concentration or dose not given beside the values
BT-549 = assay: Cytotoxicity against Homo sapiens (human) BT549 cells after 48 hr by SRB assay; conditions: BT-549, 48 h
T47D = assay: Cytotoxicity against Homo sapiens (human) T47D cells after 48 hr by SRB assay
SNB-19 = assay: Cytotoxicity against Homo sapiens (human) SNB19 cells after 48 hr by SRB assay; conditions: SNB-19, 48 h
SF-539 = assay: Cytotoxicity against Homo sapiens (human) SF539 cells after 48 hr by SRB assay; conditions: SF-539, 48 h
SF-295 = assay: Cytotoxicity against Homo sapiens (human) SF295 cells after 48 hr by SRB assay; conditions: SF-295, 48 h
SW-620 = assay: Cytotoxicity against Homo sapiens (human) SW620 cells after 48 hr by SRB assay; conditions: SW-620, 48 h
SF-268 [10] = assay: Cytotoxicity against Homo sapiens (human) SF268 cells after 48 hr by SRB assay; conditions: SF-268, 48 h
KM12 = assay: Cytotoxicity against Homo sapiens (human) KM12 cells after 48 hr by SRB assay; conditions: KM12, 48 h
HCT-15 = assay: Cytotoxicity against Homo sapiens (human) HCT15 cells after 48 hr by SRB assay; conditions: HCT-15, 48 h
HT-29 = assay: Cytotoxicity against Homo sapiens (human) HT-29 cells after 48 hr by SRB assay; conditions: HT-29, 48 h
NCI-H522 = assay: Cytotoxicity against Homo sapiens (human) NCI-H522 cells after 48 hr by SRB assay; conditions: NCI-H522, 48 h
COLO 205 = assay: Cytotoxicity against Homo sapiens (human) COLO205 cells after 48 hr by SRB assay; conditions: COLO 205, 48 h
[11] = Cytotoxicity against Homo sapiens (human) NCI-H322 cells after 48 hr by SRB assay; conditions: NCI-H322, 48 h
HOP-92 = assay: Cytotoxicity against Homo sapiens (human) HOP92 cells after 48 hr by SRB assay; conditions: HOP-92, 48 h
EKVX = assay: Cytotoxicity against Homo sapiens (human) EKVX cells after 48 hr by SRB assay
A549 = assay: Cytotoxicity against Homo sapiens (human) A549 cells after 48 hr by SRB assay; conditions: A549, 48 h
MCF7 [12] = assay: Cytotoxicity against Homo sapiens (human) MCF7 cells assessed as cellular growth after 48 hr by Alamar blue assay; set-up: concentration or dose not given beside the values
NCI-H23 = assay: Cytotoxicity against Homo sapiens (human) NCI-H23 cells after 48 hr by SRB assay; conditions: NCI-H23, 48 h

`O=C(NC(=S)NS(=O)(=O)c1ccc(N2N=C3c4ccccc4CC3C2c2cccs2)cc1)c1ccccc1` (stereo not drawn) gave a GI50 (M14) of 21.2 µM, a GI50 (LOX IMVI) of 15.2 µM and a GI50 (U-251) of 20.1 µM. It also gave a GI50 (Hs-578T) of 16.1 µM, a GI50 (MCF7 [1]) greater than 100 µM and a GI50 (MDA-MB-231) of 22.5 µM. It also gave a GI50 (DU-145) of 28.3 µM, a GI50 (UO-31) of 41.1 µM and a GI50 (RXF 393) of 54 µM. For the same compound, the GI50 (CAKI-1) was 26.1 µM, the GI50 (ACHN) was greater than 100 µM and the GI50 (786-0) was 27.9 µM. The GI50 [2] was 18.8 µM, the GI50 (SK-OV-3) was 90.8 µM and the GI50 (OVCAR-8) was 20.3 µM. The GI50 (OVCAR-5) was 18.7 µM, the GI50 (OVCAR-3) was 30.6 µM and the GI50 (UACC-62) was 14.6 µM. It also gave a GI50 (UACC-257) of 42.8 µM, a GI50 (SK-MEL-5) of 16.9 µM and a GI50 (SK-MEL-28) of 84 µM. For the same compound, the GI50 [3] was 38.6 µM, the TGI [3] was 83.7 µM and the GI50 [4] was 45.8 µM. The TGI [4] was 87.2 µM, the GI50 [5] was 41.9 µM and the TGI [5] was 95.3 µM. For the same compound, the GI50 [6] was 34.1 µM, the TGI [6] was 67.7 µM and the GI50 [7] was 53.3 µM. It also gave a TGI [7] of 90.9 µM, a GI50 [8] of 37.9 µM and a TGI [8] of 78.9 µM. The Activity (NCI-H460) was “<=32%”, the Activity (SF-268 [9]) was “<=32%” and the GI50 (BT-549) was 21.6 µM. For the same compound, the GI50 (T47D) was 69.6 µM, the GI50 (SNB-19) was 46.3 µM and the GI50 (SF-539) was 27.9 µM. For the same compound, the GI50 (SF-295) was 25.4 µM, the GI50 (SW-620) was 34.8 µM and the GI50 (SF-268 [10]) was greater than 100 µM. For the same compound, the GI50 (KM12) was 28.2 µM, the GI50 (HCT-15) was 30.2 µM and the GI50 (HT-29) was 46 µM. The GI50 (NCI-H522) was 20.5 µM, the GI50 (COLO 205) was 38.4 µM and the GI50 [11] was 14.2 µM. It also gave a GI50 (HOP-92) of 53 µM, a GI50 (EKVX) of 19.6 µM and a GI50 (A549) of 20.3 µM. For the same compound, the Activity (MCF7 [12]) was “<=32%”.

In the case of `O=C1CCS/C(=N\S(=O)(=O)c2ccc(N3N=C4c5ccccc5CC4C3c3cccs3)cc2)N1c1ccccc1` (stereo not drawn), the GI50 (M14) is reported as 15.3 µM, the GI50 (LOX IMVI) is reported as 13.6 µM and the GI50 (U-251) is reported as 14.4 µM. For the same compound, the GI50 (Hs-578T) was 60.6 µM, the GI50 (MCF7 [1]) was 29.1 µM and the GI50 (MDA-MB-231) was 52.1 µM. The GI50 (DU-145) was greater than 100 µM, the GI50 (UO-31) was greater than 100 µM and the GI50 (RXF 393) was 98.2 µM. For the same compound, the GI50 (CAKI-1) was 73 µM, the GI50 (ACHN) was 42.5 µM and the GI50 (786-0) was 64.2 µM. The GI50 [2] was greater than 100 µM, the GI50 (SK-OV-3) was 32.9 µM and the GI50 (OVCAR-8) was 19.2 µM. The GI50 (OVCAR-5) was 22.4 µM, the GI50 (OVCAR-3) was 25.9 µM and the GI50 (UACC-62) was 16.7 µM. It also gave a GI50 (UACC-257) of 24.2 µM, a GI50 (SK-MEL-5) of 14.1 µM and a GI50 (SK-MEL-28) of 42.1 µM. It also gave a GI50 [3] of 61.1 µM, a TGI [3] of 56.2 µM and a GI50 [5] of 27.8 µM. The TGI [5] was 55.4 µM, the GI50 [6] was 22 µM and the TGI [6] was 33.8 µM. For the same compound, the GI50 [7] was 34.1 µM, the TGI [7] was 54.1 µM and the GI50 [8] was 29.6 µM. The TGI [8] was 47.4 µM, the Activity (NCI-H460) was “<=32%” and the Activity (SF-268 [9]) was “<=32%”. For the same compound, the GI50 (BT-549) was 47.5 µM, the GI50 (T47D) was greater than 100 µM and the GI50 (SNB-19) was 22.3 µM. For the same compound, the GI50 (SF-539) was 21.8 µM, the GI50 (SF-295) was 15.8 µM and the GI50 (SW-620) was 24 µM. For the same compound, the GI50 (SF-268 [10]) was greater than 100 µM, the GI50 (KM12) was 17.1 µM and the GI50 (HCT-15) was 15.9 µM. The GI50 (HT-29) was 37 µM, the GI50 (NCI-H522) was 15.9 µM and the GI50 (COLO 205) was 36.8 µM. For the same compound, the GI50 (NCI-H23) was 16.7 µM, the GI50 [11] was 12.8 µM and the GI50 (HOP-92) was 35.9 µM. For the same compound, the GI50 (EKVX) was 25.7 µM, the GI50 (A549) was 14.4 µM and the Activity (MCF7 [12]) was “<=32%”.
